According to PMC4501791, “Molecular Design, Synthesis and Trypanocidal Activity of Dipeptidyl Nitriles as Cruzain Inhibitors” (PLoS Neglected Tropical Diseases, 2015):

Key:
[1] = target: T1, cruzain (Trypanosoma cruzi, UniProt P25779); assay: biochemical; settings: 37°C, pH 5.5, substrate Z-FR-AMC
T1 construct: made in house
Procedure: Enzyme kinetic assays were carried out at 37°C in 200 L of a solution containing 100 mM acetate buffer pH 5.5, 300 mM NaCl, 5 mM DTT (dithiothreitol), 5% v/v DMSO (dimethyl sulfoxide), 0.01% v/v Triton X-100 and 0.15 nM cruzain, using Corning® 96-well black flat bottom microplates. The rate of the reaction was monitored using a Biotek Synergy HT plate reader through the fluorescence emission at 460 nm (excitation at 355 nm) due to the hydrolysis of the substrate Z-Phe-Arg-7-amido-4-methylcoumarin (Z-FR-AMC, Sigma-Aldrich). The enzyme stock aliquot was rapidly thawed at 37°C and kept on ice until activation, in which it was incubated for 20 min. in the assay buffer (100 mM acetate pH 5.5 and 5 mM DTT) followed by additional 2 min. incubation with inhibitors before the reaction was started by the addition of the substrate.
Visual inspection and a pre-reading of plate wells were performed to check for possible precipitation and background fluorescence, respectively. Fluorescence emission spectra were also recorded for all inhibitors, using the same excitation wavelength (355 nm) as for the fluorometric assay. […] The reaction was started by the addition of varying concentrations of the substrate and the wells monitored for a total of 5 minutes of reaction. The initial velocities of the substrate hydrolysis under first-order reaction were calculated by Gen5 Biotek software based on the linear-regression coefficient from the fit to data of Relative Fluorescence Unit (mRFU) as a function of time (min).
Each experiment was performed in duplicates for each compound being tested. […] All inhibitors were evaluated in two different concentrations, which were chosen based on a previous screening (percentage of inhibition) at 1.7 μM substrate (~K M). […] SigmaPlot (v. 10.0) was employed for the non-linear fit and the kinetic parameters determination.

[2] = system: LLCMK2 cells; assay: Lysis of LLCMK2 host cells; assay type: cell-based; settings: for cytotoxicity at 32 µM: Macaca mulatta, LLC-MK2, 32 μM, read-out: %cell lysis at 32 μM LLCMK2
[3] = system: T. cruzi Tulahuen strain amastigotes; assay: Trypanocidal activity against amastigote forms in LLCMK2 cells, Tulahuen strain; assay type: cell-based; settings: T. cruzi Tulahuen strain; for killing at 32 µM / EC50: Trypanosoma cruzi; for killing at 32 µM: LLC-MK2, 120 h, read-out: %cell lysis at 32 μM ama Tula; for killing at 32 µM / %cell lysis at 32 μM ama Tula: amastigote lysis, 5 days; for EC50: LLC-MK2, read-out: pEC50 ama Tula (converted); for EC50 / pEC50 ama Tula: amastigote
Procedure: (§1) The assays against amastigote forms were performed in LLCMK2 cells. Previously, the cells were cultivated in 96-wells microplates (10^3 cells/well). […] After this, the microplates were incubated at 37°C, in CO2 atmosphere, for 5 days. Then, 10 μL of FluoReporter lacZ/Galactosidase Quantitative Kit (Life Technologies) were added and after 30 minutes the fluorometric reaction was read in a microplate reader (Synergy H1, Biotek) at 386 nm excitation and 448 nm emission. For both assays the percentage of parasite lysis was determined from the following formula: %lysis = 100 –{[(X-PC)/(PC-NC)]x100}, where the optical density values of the samples (X), the positive controls (PC) and negative controls (NC) were used. Culture medium was used as positive control (PC) and medium with 0.6% DMSO (v/v) as negative control (NC). All assays were performed in triplicate with two independent experiments.

[4] = system: T. cruzi CL-Brener strain amastigotes; assay: Trypanocidal activity against amastigote forms in LLCMK2 cells, CL-Brener strain; assay type: cell-based; settings: 5 days; for killing at 32 µM: Trypanosoma cruzi, LLC-MK2, 120 h, amastigote lysis, read-out: %cell lysis at 32 μM ama Brener
Procedure: as §1

[5] = target: T1, cruzain; assay: Reversibility assay: recovery of cruzain activity after rapid large dilution; assay type: biochemical; settings: 4.5 μM compound incubated with 15 nM cruzain for 30 min, diluted 100-fold
Procedure: The progress curve for this sample was then measured and compared to that of a similar sample of enzyme incubated and diluted in the absence of inhibitor. The irreversible inhibitor E-64 (CAS 66701-25-5, Sigma Aldrich) was used as reference.
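Throughout, for pKi: fluorometric read-out of substrate hydrolysis at excitation 355 nm and emission 460 nm, initial rates over 5 min, Ki from nonlinear kinetic fits, duplicate runs.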

T1 sequence (P25779 123-337 limits assumed): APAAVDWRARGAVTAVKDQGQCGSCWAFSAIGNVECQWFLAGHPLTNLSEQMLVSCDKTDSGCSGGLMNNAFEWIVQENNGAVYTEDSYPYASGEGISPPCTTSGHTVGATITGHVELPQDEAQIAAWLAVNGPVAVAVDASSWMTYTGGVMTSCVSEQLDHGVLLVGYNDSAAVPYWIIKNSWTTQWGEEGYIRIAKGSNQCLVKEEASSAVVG

| Structure (SMILES) | melting point [°C] | Ki [1] [nM] | cytotoxicity at 32 µM [2] [%] | killing at 32 µM [3] [%] | killing at 32 µM [4] [%] | EC50 [3] [nM] | further results |
| --- | --- | --- | --- | --- | --- | --- | --- |
| Cn1nc(C(C)(C)C)cc1C(=O)N[C@@H](Cc1ccccc1)C(=O)NCC#N [Compound 21, (2S)-2-[(3-tert-butyl-1-methyl-1H-pyrazol-5-yl)formamido]-N-(cyanomethyl)-3-phenylpropanamide] | 160 to 162 | 63.1 |  |  |  |  |  |
| Cn1nc(C(C)(C)C)cc1C(=O)N[C@@H](Cc1ccccc1)C(=O)NC1(C#N)CC1 [Compound 34, (2S)-2-[(5-tert-butyl-2-methylpyrazol-3-yl)formamido]-N-(1-cyanocyclopropyl)-3-phenylpropanamide] |  | 63.1 | 17 ± 3 | 0 | 23 ± 3 |  |  |
| N#CCNC(=O)[C@H](Cc1ccccc1)NC(=O)c1cc(=O)[nH]c(=O)[nH]1 [Compound 23, (2S)-N-(cyanomethyl)-2-[(2,6-dioxo-1,2,3,6-tetrahydropyrimidin-4-yl)formamido]-3-phenyl propanamide] |  |  |  |  |  |  | %cell lysis at 32 μM LLCMK2 [2]: 22 ± 5%; %cell lysis at 32 μM ama Tula [3]: 0%; pKi [1]: 5.9; %cell lysis at 32 μM ama Brener [4]: 27 ± 1% |
| N#CC1(NC(=O)[C@H](Cc2ccccc2)NC(=O)c2cnccn2)CC1 [Compound 35, (2S)-N-(1-cyanocyclopropyl)-3-phenyl-2-(pyrazin-2-ylformamido)propanamide] | 162 to 164 | 501 |  |  |  |  |  |
| CC(C)(C)C[C@H](NC(=O)c1ccccc1)C(=O)NC1(C#N)CC1 [Compound 32, (2S)-N-(1-cyanocyclopropyl)-4,4-dimethyl-2-(phenylformamido)pentanamide] | 186 to 187 | 25100 |  |  |  |  |  |
| CC(C)C[C@H](NC(=O)c1cc(C(C)(C)C)nn1C)C(=O)NC1(C#N)CC1 [Compound 30, (2S)-2-[(3-tert-butyl-1-methyl-1H-pyrazol-5-yl)formamido]-N-(1-cyanocyclopropyl)-4-methylpentanamide] |  | 25.1 |  |  | 11 ± 6 |  |  |
| N#CCNC(=O)[C@H](Cc1ccccc1)NC(=O)c1ccccc1 [Compound 5, (2S)-N-(cyanomethyl)-3-phenyl-2-(phenylformamido)propanamide] |  | 501 |  |  |  | 126000 | reversibility of inhibition [5]: reversible |
| N#CCNC(=O)[C@H](Cc1ccc(OC(=O)c2ccccc2)cc1)NC(=O)c1ccccc1 [Compound 11, 4-[(2S)-2-[(cyanomethyl)carbamoyl]-2-(phenylformamido)ethyl]phenyl benzoate] | 254 to 256 | 1260 | 8 ± 5 | 16 ± 6 | 17 ± 1 | > 316000 |  |
| CC(C)(C)OC(=O)N[C@@H](Cc1ccccc1)C(=O)NCC#N [Compound 25, Tert-butyl-N-[(1S)-1-[(cyanomethyl)carbamoyl]-2-phenylethyl]carbamete] |  |  |  |  |  |  | %cell lysis at 32 μM LLCMK2 [2]: 31 ± 2%; %cell lysis at 32 μM ama Tula [3]: 37 ± 1%; pEC50 ama Tula [3]: 4.1; pKi [1]: 5.6; %cell lysis at 32 μM ama Brener [4]: 23 ± 2% |
| N#CCNC(=O)[C@H](CCCNC(=N)N)NC(=O)c1ccccc1 [Compound 13, (2S)-5-carbamimidamido-N-(cyanomethyl)-2-(phenylformamido)pentanamide] | 117 to 118 | 126000 |  |  |  |  |  |
| N#CCNC(=O)[C@H](Cc1ccc(O)cc1)NC(=O)c1ccccc1 [Compound 10, (2S)-N-(cyanomethyl)-3-(4-hydroxyphenyl)-2-(phenylformamido)propanamide] | 209 to 210 | 200 | 18 ± 3 | 32 ± 4 | 18 ± 1 | 200000 |  |
| N#CCNC(=O)C1(NC(=O)c2ccccc2)CCCC1 [Compound 14, N-(1-[(cyanomethyl)carbamoyl]cyclopentyl)benzamide] | 165 to 166 | 7940 | 18 ± 1 | 25 ± 4 | 9 ± 1 | 200000 |  |
| N#CCNC(=O)[C@H](Cc1ccccc1)NC(=O)c1ccco1 [Compound 17, (2S)-N-(cyanomethyl)-2-(furan-2-ylformamido)-3-phenylpropanamide] | 176 to 179 | 501 | 24 ± 0.2 | 36 ± 1 | 21 ± 2 | 100000 |  |
| N#CCNC(=O)[C@H](Cc1ccccc1)NC(=O)c1cncc(Br)c1 [Compound 20, (2S)-2-[(5-bromopyridin-3-yl)formamido]-N-(cyanomethyl)-3-phenylpropanamide] |  | 251 | 17 ± 1 | 0 | 25 ± 8 |  |  |
| N#CC1(NC(=O)C2(NC(=O)c3ccccc3)CCCC2)CC1 [Compound 37] |  |  |  |  |  |  | %cell lysis at 32 μM LLCMK2 [2]: 26 ± 3%; %cell lysis at 32 μM ama Tula [3]: 34 ± 5%; pEC50 ama Tula [3]: 4.1; pKi [1]: 4.9; %cell lysis at 32 μM ama Brener [4]: 8 ± 3% |
| CC(C)C[C@H](NC(=O)c1cc(C(C)(C)C)nn1C)C(=O)NCC#N [Compound 29, (2S)-2-[(3-tert-butyl-1-methyl-1H-pyrazol-5-yl)formamido]-N-(cyanomethyl)-4 methylpentanamide] | 179 to 180 | 63.1 | 27 ± 18 | 17 ± 4 | 10 ± 1 |  |  |
| CC(C)C[C@H](NC(=O)OC(C)(C)C)C(=O)NC1(C#N)CC1 [Compound 31, tert-butyl N-[(1S)-1-[(1-cyanocyclopropyl)carbamoyl]-3-methylbutyl]carbamate] |  | 631 |  |  |  |  |  |
| N#CCNC(=O)[C@H](Cc1ccccc1)NC(=O)c1cccs1 [Compound 16, (2S)-N-(cyanomethyl)-3-phenyl-2-(thiophen-2-ylformamido)propanamide] |  | 794 | 19 ± 4 | 30 ± 11 | 24 ± 2 | 63100 |  |
| CC(C)(C#N)NC(=O)[C@H](Cc1ccccc1)NC(=O)c1ccccc1 [Compound 8, (2S)-N-(1-cyano-1-methylethyl)-3-phenyl-2-(phenylformamido)propanamide] |  | 3160 |  |  |  |  |  |
| CC(C)C[C@H](NC(=O)OC(C)(C)C)C(=O)NCC#N [Compound 27, tert-butyl N-[(1S)-1-[(cyanomethyl)carbamoyl]-3-methylbutyl]carbamate] |  | 1260 | 0 | 0 | 19 ± 3 |  |  |
| N#CC1(NC(=O)[C@H](Cc2ccccc2)NC(=O)c2ccccc2)CC1 [Compound 7, (2S)-N-(1-cyanocyclopropyl)-3-phenyl-2-(phenylformamido)propanamide] |  | 251 |  | 16 ± 10 |  | 126000 |  |
| N#CCNC(=O)[C@H](Cc1cccc(Cl)c1)NC(=O)c1ccccc1 [Compound 9, (2S)-3-(3-chlorophenyl)-N-(cyanomethyl)-2-(phenylformamido)propanamide] | 176 to 178 | 251 | 12 ± 1 | 17 ± 2 | 24 ± 1 | 100000 |  |
| N#CCNC(=O)[C@H](Cc1ccccc1)NC(=O)OCc1ccccc1 [Compound 24, Benzyl N-[(1S)-1-[(cyanomethyl)carbamoyl]-2-phenylethyl]carbamate] |  | 501 |  |  |  |  |  |
| N#CCNC(=O)[C@H](Cc1ccccc1)NC(=O)c1ccncn1 [Compound 18, (2S)-N-(cyanomethyl)-3-phenyl-2-(pyrimidin-4-ylformamido)propanamide] | 171 to 173 | 1260 | 20 ± 1 | 17 ± 2 | 18 ± 1 | 200000 |  |
| Cn1nc(C(F)(F)F)cc1C(=O)N[C@@H](Cc1ccccc1)C(=O)NC1(C#N)CC1 [Compound 33, (2S)-N-(1-cyanocyclopropyl)-2-{[1-methyl-3-(trifluoromethyl)-1H-pyrazol-5-yl]formamido}-3-phenylpropanamide] | 211 to 212 | 398 |  |  | 22 ± 10 |  |  |
| N#Cc1cccc(C[C@H](NC(=O)c2ccccc2)C(=O)NC2(C#N)CC2)c1 [Compound 36, (2S)-N-(1-cyanocyclopropyl)-3-(3-cyanophenyl)-2-(phenylformamido)propanamide] | 191 to 194 | 3980 |  |  |  |  |  |
| N#CCNC(=O)[C@H](Cc1ccccc1)NC(=O)C(F)(F)F [Compound 15, (2S)-N-(cyanomethyl)-3-phenyl-2-(trifluoroacetamido)propanamide] |  | 3980 |  |  |  |  |  |
| N#CCNC(=O)[C@H](Cc1ccccc1)NC(=O)c1cnccn1 [Compound 19, (2S)-N-(cyanomethyl)-3-phenyl-2-(pyrazin-2-ylformamido)propanamide] |  | 1580 | 14 ± 1 | 22 ± 7 | 21 ± 8 | 79400 |  |
| Cn1nc(C(F)(F)F)cc1C(=O)N[C@@H](Cc1ccccc1)C(=O)NCC#N [Compound 22] |  |  |  |  |  |  | %cell lysis at 32 μM LLCMK2 [2]: 19 ± 0.4%; %cell lysis at 32 μM ama Tula [3]: 48 ± 4%; pEC50 ama Tula [3]: 4.0; pKi [1]: 6.3; %cell lysis at 32 μM ama Brener [4]: 20 ± 2% |
